Measurements: US20210269451A1, “PYRIDINYL HETEROCYCLYL COMPOUNDS FOR THE TREATMENT OF AUTOIMMUNE DISEASE” (Hoffmann-La Roche Inc., priority 2018, published 2021)

Experiments:
human TLR8 = biological target: T1, human TLR8 (Homo sapiens, UniProt Q9NR97); assay: HEK293-Blue-hTLR-8 cells assay; assay type: cell-based; conditions: HEK293-Blue-hTLR8 cells, R848 stimulation, 20 hrs, SEAP reporter; read-out: HEK/hTLR8 IC50
T1 construct: host or cells: HEK293-Blue-hTLR-8 (HEK293)
T1 sequence (Q9NR97 27-1041): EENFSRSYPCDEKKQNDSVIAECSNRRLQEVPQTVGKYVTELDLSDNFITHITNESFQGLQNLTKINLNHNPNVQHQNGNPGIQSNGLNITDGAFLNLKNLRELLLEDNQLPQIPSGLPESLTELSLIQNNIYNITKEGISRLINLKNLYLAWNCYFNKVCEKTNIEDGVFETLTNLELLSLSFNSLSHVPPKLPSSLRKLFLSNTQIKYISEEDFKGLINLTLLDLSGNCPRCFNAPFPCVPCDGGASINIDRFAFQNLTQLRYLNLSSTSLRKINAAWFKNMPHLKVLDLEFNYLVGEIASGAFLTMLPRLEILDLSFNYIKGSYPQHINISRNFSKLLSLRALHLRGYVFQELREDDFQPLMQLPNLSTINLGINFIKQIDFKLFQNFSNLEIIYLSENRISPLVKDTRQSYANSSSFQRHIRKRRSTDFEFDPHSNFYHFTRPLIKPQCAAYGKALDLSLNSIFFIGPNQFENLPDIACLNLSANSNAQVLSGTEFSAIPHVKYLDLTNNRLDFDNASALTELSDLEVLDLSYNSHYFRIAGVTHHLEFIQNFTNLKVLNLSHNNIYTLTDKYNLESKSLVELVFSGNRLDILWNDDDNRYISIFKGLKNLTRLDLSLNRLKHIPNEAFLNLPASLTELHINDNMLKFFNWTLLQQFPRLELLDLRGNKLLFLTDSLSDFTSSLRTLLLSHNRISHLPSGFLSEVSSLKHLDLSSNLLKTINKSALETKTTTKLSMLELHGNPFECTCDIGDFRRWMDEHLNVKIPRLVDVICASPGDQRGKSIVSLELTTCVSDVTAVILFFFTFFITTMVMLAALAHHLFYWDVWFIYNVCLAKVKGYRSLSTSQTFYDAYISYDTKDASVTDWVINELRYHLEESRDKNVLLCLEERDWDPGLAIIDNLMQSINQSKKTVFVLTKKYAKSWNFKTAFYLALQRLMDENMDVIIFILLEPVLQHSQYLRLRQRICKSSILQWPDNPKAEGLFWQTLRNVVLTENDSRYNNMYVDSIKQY
Description: The following tests were carried out in order to determine the activity of the compounds of formula (I) and (Ia) in HEK293-Blue-hTLR-7/8/9 cells assay.
HEK293-Blue-hTLR-8 cells assay:
A stable HEK293-Blue-hTLR-8 cell line was purchased from InvivoGen (Cat. #: hkb-htlr8, San Diego, Calif., USA). These cells were originally designed for studying the stimulation of human TLR8 by monitoring the activation of NE-κB. A SEAP (secreted embryonic alkaline phosphatase) reporter gene was placed under the control of the IFN-β minimal promoter fused to five NE-κB and AP-1-binding sites. The SEAP was induced by activating NE-κB and AP-1 via stimulating HEK-Blue hTLR8 cells with TLR8 ligands. Therefore the reporter expression was declined by TLR8 antagonist under the stimulation of a ligand, such as R848, for incubation of 20 hrs. The cell culture supernatant SEAP reporter activity was determined using QUANTI-Blue™ kit (Cat. #: rep-qbl, Invivogen, San Diego, Ca, USA) at a wavelength of 640 nm, a detection medium that turns purple or blue in the presence of alkaline phosphatase.
HEK293-Blue-hTLR8 cells were incubated at a density of 250,000-450,000 cells/mL in a volume of 170 μL in a 96-well plate in Dulbecco's Modified Eagle's medium (DMEM) containing 4.5 g/L glucose, 50 U/mL penicillin, […], […], 2 mM L-glutamine, 10% (v/v) heat-inactivated fetal bovine serum with addition of 20 μL test compound in a serial dilution in the presence of final DMSO at 1% and 10 μL of 60 uM R848 in above DMEM, perform incubation under 37° C. in a CO2 incubator for 20 hrs. Then 20 μL of the supernatant from each well was incubated with 180 μL Quanti-blue substrate solution at 37° C. for 2 hrs and the absorbance was read at 620˜655 nm using a spectrophotometer. The signalling pathway that TLR8 activation leads to downstream NE-κB activation has been widely accepted, and therefore similar reporter assay was modified for evaluating TLR8 antagonist.

CYP2D6 = biological target: T2, CYP2D6 (Homo sapiens, UniProt P10635); assay: CYP inhibition assay in human liver microsome; assay type: in vitro ADME; conditions: human liver microsomes, probe dextromethorphan, dextromethorphan substrate, percentage inhibition <0: not or weak inhibitor, read-out: CYP 2D6 inhibition %@10 μM
T2 construct: tissue BD-Gentest 452117; host or cells: human liver microsomes
T2 sequence (P10635 whole entry): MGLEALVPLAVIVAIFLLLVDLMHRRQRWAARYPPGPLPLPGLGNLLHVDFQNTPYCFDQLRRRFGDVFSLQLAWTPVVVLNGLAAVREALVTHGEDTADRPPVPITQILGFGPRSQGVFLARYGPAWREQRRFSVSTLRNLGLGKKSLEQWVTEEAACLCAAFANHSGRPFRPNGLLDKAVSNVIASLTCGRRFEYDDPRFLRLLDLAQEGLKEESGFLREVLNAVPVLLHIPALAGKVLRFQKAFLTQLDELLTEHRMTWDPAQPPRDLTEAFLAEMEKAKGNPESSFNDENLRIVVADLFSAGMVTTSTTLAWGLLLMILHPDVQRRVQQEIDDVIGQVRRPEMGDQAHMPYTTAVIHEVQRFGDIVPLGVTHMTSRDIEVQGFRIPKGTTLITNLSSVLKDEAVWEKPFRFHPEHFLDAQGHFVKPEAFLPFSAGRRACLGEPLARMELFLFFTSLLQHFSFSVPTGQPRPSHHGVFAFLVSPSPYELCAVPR
Description: The compounds would be desirable to have minimal DDI liabilities. Therefore, the effects of compounds of formula (I) or (Ia) on CYP2D6 are determined.
This is a high throughput screening assay used for assessment of reversible inhibition of CYP2D6 activity of test compounds in human liver microsome (HLM) in early discovery stage.
10 mM DMSO stock solutions of test compounds were diluted in DMSO to generate 2 mM intermediate stock solution. 250 nL of intermediate stock solution were transferred in duplicate into 3 separate 384 well microtitre plates (assay-ready plates). A mixture of HLM and each substrate was made up. 45 μL of HLM substrate mix was then transferred to each well of an assay ready plate and mixed. The negative (solvent) and positive control (standard inhibitor for CYP 2D6) were included in each assay ready plate. The assay ready plate was warmed to 37° C. in an incubator over 10 minutes. 5 μL pre-warmed NADPH regenerating system was added to each incubation well to start the reaction. Final incubation volume was 50 μL. The assay plate then was placed back in the 37° C. incubator. After 10 minutes incubation, incubates were quenched by addition of 50 μL 100% acetonitrile containing internal standards (20 ng/mL D3-Dextrorphan). The supernatants were collected for RapidFire/MS/MS analysis.
RapidFire online solid phase extraction/sample injection system (Agilent) coupled with API4000 triple quadrupole mass spectrometer (AB Sciex) were used for sample analysis. The mobile phase composed of acetonitrile and water supplemented with 0.1% formic acid. A C4 solid phase extraction cartridge is used for sample separation. MS detection is achieved in positive ion MRM mode.
Data analysis Peak areas for substrate, metabolite and internal standard are determined using the RapidFire integrator software (version 3.6.12009.12296). Peak area ratios (PAR) of metabolite and internal standard (stable-labelled metabolite) are then calculated. The measurement window for each experiment is then defined:
PAR (0% activity), average PAR for all incubations containing concentrated inhibitor; Par (100% activity), average PAR for all incubations containing no inhibitor (DMSO controls);
% Activity (test inhibitor)=
=[PAR(test inhibitor)-PAR(0% activity)]/[PAR(100% activity)-PAR(0% activity)];
% Inhibition (test inhibitor)=100-% Activity (test inhibitor).

SMILES	IC50 (human TLR8)	inhibition at 10 min, 10 μM (CYP2D6)
Cc1cc(N2CCOC3CN(CC4CN(c5ccc(C#N)c6ncccc56)CC(C)O4)CC32)cc(C)n1 (single isomer, unassigned) [Example 17A]	< 3 nM	
Cc1cc(N2CCOC3CN(CC4CN(c5ccc(C#N)c6ncccc56)CC(C)O4)CC32)cc(C)n1 (single isomer, unassigned) [Example 17B]	3 nM	5%
Cc1cc(N2CC3(CN(C[C@H]4CN(c5ccc(C#N)c6ncccc56)C[C@@H](C)O4)C3)C2)cc(CO)n1 [Example 1, 5-[(2S,6R)-2-[[2-[2-(hydroxymethyl)-6-methyl-4-pyridyl]-2,6-diazaspiro[3.3]heptan-6-yl]methyl]-6-methyl-morpholin-4-yl]quinoline-8-carbonitrile]	81 nM	6%
C[C@@H]1CN(c2ccc(C#N)c3ncccc23)C[C@H](CN2CC3(C2)CN(c2ccnc(C4CC4)c2)CCO3)O1 [Example 3, 5-[(2S,6R)-2-[[8-(2-cyclopropyl-4-pyridyl)-5-oxa-2,8-diazaspiro[3.5]nonan-2-yl]methyl]-6-methyl-morpholin-4-yl]quinoline-8-carbonitrile]	< 3 nM	6%
Cc1cc(N2CCN(C[C@H]3CN(c4ccc(C#N)c5ncccc45)C[C@@H](C)O3)[C@@H](C)C2)cc(CO)n1 [Example 4A]	7 nM	
Cc1cc(N2CCN(C[C@H]3CN(c4ccc(C#N)c5ncccc45)C[C@@H](C)O3)[C@H](C)C2)cc(CO)n1 [Example 4B]	5 nM	
Cc1cc(NC2CCN(C[C@H]3CN(c4ccc(C#N)c5ncccc45)C[C@@H](C)O3)CC2)cc(CO)n1 [Example 5]	33 nM	7.5%
Cc1cc(NC2CCN(C[C@H]3CN(c4ccc(C#N)c5ncccc45)C[C@@H](C)O3)C2)cc(CO)n1 (some centres unmarked) [Example 6]	53 nM	8%
Cc1cc(NC2CN(C[C@H]3CN(c4ccc(C#N)c5ncccc45)C[C@@H](C)O3)C2)cc(C)n1 [Example 7]	31 nM	-21.5%
Cc1cc(N2CCC23CN(C[C@H]2CN(c4ccc(C#N)c5ncccc45)C[C@@H](C)O2)C3)cc(C)n1 [Example 8]	7 nM	
Cc1cc(N2CCC3(CN(C[C@H]4CN(c5ccc(C#N)c6ncccc56)C[C@@H](C)O4)C3)C2)cc(C)n1 [Example 9]	51 nM	-5%
Cc1cc(N2C[C@H]3CN(C[C@H]4CN(c5ccc(C#N)c6ncccc56)C[C@@H](C)O4)C[C@H]3C2)cc(CO)n1 [Example 10]	22 nM	3.5%
Cc1cc(N(C)C2CN(C[C@H]3CN(c4ccc(C#N)c5ncccc45)C[C@@H](C)O3)C2)cc(C)n1 [Example 11]	11 nM	-7.5%
Cc1cc(N2CCC23CN(C[C@H]2CN(c4ccc(C#N)c5ncccc45)C[C@@H](C)O2)C3)cc(CO)n1 [Example 12]	12 nM	-3%
C[C@@H]1CN(c2ccc(C#N)c3ncccc23)C[C@H](CN2CCN(c3ccnc(N)c3)CC2)O1 [Example 19, 5-[(2S,6R)-2-[[4-(2-amino-4-pyridyl)piperazin-1-yl]methyl]-6-methyl-morpholin-4-yl]quinoline-8-carbonitrile]	3 nM	
C[C@@H]1CN(c2ccc(C#N)c3ncccc23)C[C@H](CNC2CCN(c3ccnc(N)c3)CC2)O1 [Example 20, 5-[(2S,6R)-2-[[[1-(2-amino-4-pyridyl)-4-piperidyl]amino]methyl]-6-methyl-morpholin-4-yl]quinoline-8-carbonitrile]	70 nM	
Cc1cc(N2CCC(NC[C@H]3CN(c4ccc(C#N)c5ncccc45)C[C@@H](C)O3)CC2)cc(CO)n1 [Example 23]	41 nM	
Cc1cc(N2CC[C@@H](NC[C@H]3CN(c4ccc(C#N)c5ncccc45)C[C@@H](C)O3)C2)cc(CO)n1 [Example 28]	32 nM	
Cc1cc(N2CC[C@H](NC[C@H]3CN(c4ccc(C#N)c5ncccc45)C[C@@H](C)O3)C2)cc(CO)n1 [Example 29]	25 nM	
Cc1cc(N2CC[C@H](F)[C@H](NC[C@H]3CN(c4ccc(C#N)c5ncccc45)C[C@@H](C)O3)C2)cc(CO)n1 [Example 33]	7 nM	
Cc1cc(N2CC[C@@H](F)[C@H](NC[C@H]3CN(c4ccc(C#N)c5ncccc45)C[C@@H](C)O3)C2)cc(CO)n1 [Example 34]	4 nM	
Cc1cc(N2CC(NC[C@H]3CN(c4ccc(C#N)c5ncccc45)C[C@@H](C)O3)CC(F)(F)C2)cc(CO)n1 (some centres unmarked) [Example 36]	12 nM	
Cc1cc(N2CC(N(C)C[C@H]3CN(c4ccc(C#N)c5ncccc45)C[C@@H](C)O3)C2)cc(CO)n1 [Example 37]	< 3 nM	
C[C@@H]1CN(c2ccc(C#N)c3ncccc23)C[C@H](CN2CC3(C2)CN(c2ccnc(C(C)(C)O)c2)C3)O1 [Example 48, 5-[(2S,6R)-2[[2-[2-(1-hydroxy-1-methyl-ethyl)-4-pyridyl]-2,6-diazaspiro[3.3]heptan-6-yl]methyl]-6-methyl-morpholin-4-yl]quinoline-8-carbonitrile]	198 nM	
C[C@@H]1CN(c2ccc(C#N)c3ncccc23)C[C@H](CN2CC3(C2)CN(c2ccnc(C4CC4)c2)C3)O1 [Example 49, 5-[(2S,6R)-2[[2-(2-cyclopropyl-4-pyridyl)-2,6-diazaspiro[3.3]heptan-6-yl]methyl]-6-methyl-morpholin-4-yl]quinoline-8-carbonitrile]	20 nM	
